Data reported in patent publication US8735438B2, “Substituted-aryl-2-phenylethyl-1H-imidazole compounds as subtype selective modulators of alpha 2B and/or alpha 2C adrenergic receptors” (Allergan, Inc., priority 2008, dated 2014).
Like-named read-outs stand apart in the source and are kept apart here.

Legend:
Assay type in all cases: cell-based
[1] = target: T1, alpha 2C receptor (Homo sapiens, UniProt P18825); assay: RSAT (Receptor Selection and Amplification Technology) assay, alpha 2C; settings: for Alpha 2C intrinsic activity (efficacy), value in parentheses: ratio of maximal effect to that of standard full agonist brimonidine (UK14304)
T1 construct: expressed in transfected cells; host or cells: NIH-3T3 cells
T1 sequence (P18825 1-462): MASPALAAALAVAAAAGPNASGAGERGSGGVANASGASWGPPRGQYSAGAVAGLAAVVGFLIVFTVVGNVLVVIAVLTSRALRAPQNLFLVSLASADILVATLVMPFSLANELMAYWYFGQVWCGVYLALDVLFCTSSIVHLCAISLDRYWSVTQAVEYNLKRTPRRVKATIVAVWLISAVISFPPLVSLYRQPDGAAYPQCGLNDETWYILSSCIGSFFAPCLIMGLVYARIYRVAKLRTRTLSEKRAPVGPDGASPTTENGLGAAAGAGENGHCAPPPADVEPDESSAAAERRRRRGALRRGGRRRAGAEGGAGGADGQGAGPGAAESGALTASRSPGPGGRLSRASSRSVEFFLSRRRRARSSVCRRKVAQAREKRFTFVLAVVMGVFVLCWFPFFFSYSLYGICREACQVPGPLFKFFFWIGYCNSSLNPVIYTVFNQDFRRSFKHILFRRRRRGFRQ
Experimental: (§1) The RSAT assay measures a receptor-mediated loss of contact inhibition that results in selective proliferation of receptor-containing cells in a mixed population of confluent cells. The increase in cell number is assessed with an appropriate transfected marker gene such as β-galactosidase, the activity of which can be easily measured in a 96-well format. Receptors that activate the G protein, Gq, elicit this response. Alpha 2 receptors, which normally couple to Gi, activate the RSAT response when coexpressed with a hybrid Gq protein that has a Gi receptor recognition domain, called Gq/i5.
(§2) NIH-3T3 cells are plated at a density of 2×10^6 cells in 15 cm dishes and maintained in Dulbecco's modified Eagle's medium supplemented with 10% calf serum. One day later, cells are cotransfected by calcium phosphate precipitation with mammalian expression plasmids encoding p-SV-β-galactosidase (5-10 μg), receptor (1-2 μg) and G protein (1-2 μg). 40 μg salmon sperm DNA may also be included in the transfection mixture. Fresh media is added on the following day and 1-2 days later, cells are harvested and frozen in 50 assay aliquots. Cells are thawed and 100 μl added to 100 μl aliquots of various concentrations of drugs in triplicate in 96-well dishes. Incubations continue 72-96 hr at 37° C. After washing with phosphate-buffered saline, .E-backward.-galactosidase enzyme activity is determined by adding 200 μl of the chromogenic substrate (consisting of 3.5 mM o-nitrophenyl-beta-D-galactopyranoside and 0.5% nonidet P-40 in phosphate buffered saline), incubating overnight at 30° C. and measuring optical density at 420 nm. The absorbance is a measure of enzyme activity, which depends on cell number and reflects a receptor-mediated cell proliferation. The efficacy or intrinsic activity is calculated as a ratio of the maximal effect of the drug to the maximal effect of a standard full agonist for each receptor subtype. Brimonidine, also called UK14304, the chemical structure of which is shown below, is used as the standard agonist for the alpha 2A, alpha 2B and alpha 2C receptors.

[2] = target: T2, alpha 2A receptor (Homo sapiens, UniProt P08913); assay: RSAT (Receptor Selection and Amplification Technology) assay, alpha 2A; settings: NIH-3T3 cells cotransfected with receptor and Gq/i5; ratio of maximal effect to that of standard full agonist brimonidine (UK14304)
T2 construct: expressed in transfected cells; host or cells: NIH-3T3 cells
T2 sequence (P08913 1-465): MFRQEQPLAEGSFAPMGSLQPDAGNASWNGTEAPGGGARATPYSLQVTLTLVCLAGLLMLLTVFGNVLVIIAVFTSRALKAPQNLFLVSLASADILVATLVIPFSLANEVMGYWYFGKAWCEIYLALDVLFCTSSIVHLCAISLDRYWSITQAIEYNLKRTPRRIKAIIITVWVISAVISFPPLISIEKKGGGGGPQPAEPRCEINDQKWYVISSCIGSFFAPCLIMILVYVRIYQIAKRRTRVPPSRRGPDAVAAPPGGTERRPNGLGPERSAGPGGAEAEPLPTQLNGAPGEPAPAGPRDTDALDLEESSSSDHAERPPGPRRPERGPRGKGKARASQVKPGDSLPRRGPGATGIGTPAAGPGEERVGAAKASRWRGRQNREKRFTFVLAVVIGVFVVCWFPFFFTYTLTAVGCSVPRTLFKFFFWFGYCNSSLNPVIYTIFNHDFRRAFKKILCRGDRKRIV
Text: The compounds disclosed herein are agonists of alpha 2B/2C adrenergic receptors. […] 76, pp. 308-311 (incorporated herein by reference) and is also described below. Another reference pertinent to this assay is Conklin et al. (1993) Nature 363: 274-6, also incorporated herein by reference.
as §1, §2

[3] = target: T3, alpha 2B receptor (Homo sapiens, UniProt P18089); assay: RSAT (Receptor Selection and Amplification Technology) assay, alpha 2B; settings: for Alpha 2B intrinsic activity (efficacy), value in parentheses: ratio of maximal effect to that of standard full agonist brimonidine (UK14304)
T3 construct: expressed in transfected cells; host or cells: NIH-3T3 cells
T3 sequence (P18089 1-450): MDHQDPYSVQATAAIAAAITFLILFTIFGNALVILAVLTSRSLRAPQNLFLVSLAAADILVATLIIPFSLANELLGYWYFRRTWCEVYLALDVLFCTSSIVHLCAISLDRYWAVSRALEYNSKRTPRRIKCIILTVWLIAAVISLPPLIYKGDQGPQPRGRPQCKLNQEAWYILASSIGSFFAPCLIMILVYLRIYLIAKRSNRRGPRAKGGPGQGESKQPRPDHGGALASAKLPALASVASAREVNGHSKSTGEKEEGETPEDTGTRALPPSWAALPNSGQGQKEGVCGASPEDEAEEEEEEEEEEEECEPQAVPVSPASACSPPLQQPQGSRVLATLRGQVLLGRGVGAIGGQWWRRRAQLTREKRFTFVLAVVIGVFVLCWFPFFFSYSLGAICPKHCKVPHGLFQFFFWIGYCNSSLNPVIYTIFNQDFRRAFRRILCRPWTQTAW
Experimental: as §1, §2

[4] = NIH-3T3 cells cotransfected with receptor and Gq/i5
[5] = NIH-3T3 cells cotransfected with receptor and Gq/i5, read-out: Alpha 2B potency nM (EC50)

Compound | Alpha 2C intrinsic activity (efficacy), value in parentheses [1, 4] | Alpha 2A intrinsic activity (efficacy), value in parentheses [2] | EC50 [3] [nM] | Alpha 2B intrinsic activity (efficacy), value in parentheses [3, 4] | EC50 ([1]; NIH-3T3 cells cotransfected with receptor and Gq/i5, read-out: Alpha 2C potency nM (EC50)) [nM] | EC50 [3, 5] [nM] | EC50 [1] [nM]
Fc1ccccc1C(Cc1ccccc1)c1c[nH]cn1 (stereo not shown) | No Data (.18) | No Data (.04) | 3.5 | .43 |  |  | 
Clc1cccc(C(Cc2ccccc2)c2c[nH]cn2)c1Cl (stereo not shown) | .41 | No Data (.21) |  | .97 | 41 | 8.4 | 
c1ccc(CC(c2ccccc2)c2c[nH]cn2)cc1 (stereo not shown) | No Data (.10) | No Data (.05) | 2.8 | .69 |  |  | 
c1ccc(CC(c2ccncc2)c2c[nH]cn2)cc1 (stereo not shown) | No Data (.09) | No Data (.02) | 66 | .74 |  |  | 
Cc1cccc(C(Cc2ccccc2)c2c[nH]cn2)c1C (stereo not shown) | .36 | No Data (.28) | 2.09 | 1.01 |  |  | 26
Cc1ccccc1C(Cc1ccccc1)c1c[nH]cn1 (stereo not shown) | No Data (.21) | No Data (.10) |  | .69 |  | 101 | 
Fc1cccc(C(Cc2ccccc2)c2c[nH]cn2)c1F (stereo not shown) | No Data (.17) | No Data (.04) |  | .53 |  | 4.4 | 
Clc1cccc(/C(=C/c2ccccc2)c2c[nH]cn2)c1 | No Data (.19) | No Data (.09) | 7.8 | .80 |  |  | 
